Measured values published in patent US11795171B2, “Pyrrolotriazinones and imidazotriazinones as ubiquitin-specific protease 7 inhibitors” (Valo Health, Inc., priority 2014, dated 2023).

Tests used:
[1] = molecular target: T1, USP7 (Homo sapiens (Human), UniProt Q93009); test: USP7 Assay A (Ubitquin-Rhodamine110 Assay); format: biochemical; conditions: Ub-Rh110 substrate 25 nM
Protocol: Each assay was performed in a final volume of 15 μL in assay buffer containing 20 mM Tris-HCl (pH 8.0, (1M Tris-HCl, pH 8.0 solution; Corning 46-031-CM)), 1 mM GSH (L-Glutathione reduced: Sigma #G4251), 0.03% BGG ([…], Sigma, #G7516-25G), and 0.01% Triton X-100 (Sigma, #T9284-10L). Nanoliter quantities of either an 8-point or 10-point, 3-fold serial dilution in DMSO was pre-dispensed into assay plates (Perkin Elmer, ProxiPlate-384 F Plus, #6008269) for a final test concentration range of either 25 μM to 11 nM or 25 μM to 1.3 nM, respectively. The final concentration of the enzyme (USP7, construct USP7 (208-1102) 6*His, Viva Biotech) in the assay was […]. […] 5 μL of 2× enzyme was added to assay plates (pre-stamped with compound) preincubated with USP7 for 30 minutes and then 5 μL of 2×Ub-Rh110 was added to assay plates. Plates were incubated stacked for 20 minutes at room temperature before 5 μL of stop solution (final concentration of 10 mM citric acid in assay buffer (Sigma, #251275-500G)). Fluorescence was read on the Envision (Excitation at 485 nm and Emission at 535 nm; Perkin Elmer) or on the PheraSTAR (Excitation at 485 nm and Emission at 535 nm; BMG Labtech).
Data from USP7 Assays A and B were reported as percent inhibition (inh) compared with control wells based on the following equation: % inh=1−((FLU−AveLow)/(AveHigh−AveLow)) where FLU=measured Fluorescence (See Tables 2 and 3). AveLow=average Fluorescence of no enzyme control (n=16). AveHigh=average Fluorescence of DMSO control (n=16). IC50 values were determined by curve fitting of the standard 4 parameter logistic fitting algorithm included in the Activity Base software package: IDBS XE Designer Model205. Data is fitted using the Levenburg Marquardt algorithm. IC50 data from USP7 Assays A and B for the compounds of the invention can be found in Tables 2 and 3.

[2] = molecular target: T1, USP7; test: USP7 Assay B (Ubitquin-Rhodamine110 Assay); format: biochemical; conditions: Ub-Rh110 substrate 25 nM

T1 sequence (Q93009 208-1102): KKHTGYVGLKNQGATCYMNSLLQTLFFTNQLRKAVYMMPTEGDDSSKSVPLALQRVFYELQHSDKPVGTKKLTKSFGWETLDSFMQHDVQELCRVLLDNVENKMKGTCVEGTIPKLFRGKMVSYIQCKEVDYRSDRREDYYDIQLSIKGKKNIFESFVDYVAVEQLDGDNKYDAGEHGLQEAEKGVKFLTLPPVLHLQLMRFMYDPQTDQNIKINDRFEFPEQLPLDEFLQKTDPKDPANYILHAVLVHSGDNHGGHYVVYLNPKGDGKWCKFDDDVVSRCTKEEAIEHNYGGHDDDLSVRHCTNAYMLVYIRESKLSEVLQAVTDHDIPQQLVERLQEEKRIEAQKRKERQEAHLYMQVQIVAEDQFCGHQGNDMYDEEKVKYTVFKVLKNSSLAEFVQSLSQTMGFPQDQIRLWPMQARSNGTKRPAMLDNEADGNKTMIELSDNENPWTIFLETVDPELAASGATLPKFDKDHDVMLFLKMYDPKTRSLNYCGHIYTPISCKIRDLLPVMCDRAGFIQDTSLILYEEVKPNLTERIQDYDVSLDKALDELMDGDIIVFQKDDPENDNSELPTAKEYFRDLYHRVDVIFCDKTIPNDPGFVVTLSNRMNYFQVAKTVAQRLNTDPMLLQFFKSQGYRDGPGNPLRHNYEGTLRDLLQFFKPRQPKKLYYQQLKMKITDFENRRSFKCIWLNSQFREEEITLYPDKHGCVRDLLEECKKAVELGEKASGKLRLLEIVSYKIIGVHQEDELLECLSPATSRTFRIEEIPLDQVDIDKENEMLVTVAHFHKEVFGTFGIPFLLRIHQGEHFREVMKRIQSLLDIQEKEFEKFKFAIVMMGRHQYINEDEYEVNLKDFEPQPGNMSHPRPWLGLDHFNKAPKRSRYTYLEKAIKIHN

Molecule | IC50 [1] [µM] | IC50 [2] [µM]
Cc1ccc(-c2ncc3c(=O)n(CC4(O)CCN(C(=O)CC(C)n5cccn5)CC4)cnn23)cc1 (racemic) [Compound I-119, 3-([4-Hydroxy-1-[3-(1H-pyrazol-1-yl)butanoyl]piperidin-4-yl]methyl)-7-(4-methylphenyl)-3H,4H-imidazo[4,3-f][1,2,4]triazin-4-one] | 1 to 10 | –
Cc1ccc(-c2ncc3c(=O)n(CC4(O)CCN(C(=O)c5ccc(F)cc5)CC4)cnn23)cc1 [Compound I-117, 3-((1-(4-fluorobenzoyl)-4-hydroxypiperidin-4-yl)methyl)-7-p-tolylimidazo[1,5-f][1,2,4]triazin-4(3H)-one] | 1 to 10 | –
Cc1ccc(C(=O)N2CCC(O)(Cn3cnn4c(-c5ccc(F)cc5)ncc4c3=O)CC2)cc1 [Compound I-124, 7-(4-fluorophenyl)-3-((4-hydroxy-1-(4-methylbenzoyl)piperidin-4-yl)methyl)imidazo[5,1-f][1,2,4]triazin-4(3H)-one] | > 10 | –
O=C(c1cnc(C2CC2)o1)N1CCC(O)(Cn2cnn3c(-c4ccc(F)cc4)ncc3c2=O)CC1 [Compound I-122, 3-((1-(2-cyclopropyloxazole-5-carbonyl)-4-hydroxypiperidin-4-yl)methyl)-7-(4-fluorophenyl)imidazo[5,1-f][1,2,4]triazin-4(3H)-one] | 1 to 10 | –
Cc1ccc(-c2ncc3c(=O)n(CC4(O)CCN(C(=O)C[C@@H](C)n5cccn5)CC4)cnn23)cc1 [Compound I-121, (R)-3-((1-(3-(1H-pyrazol-1-yl)butanoyl)-4-hydroxypiperidin-4-yl)methyl)-7-(p-tolyl)imidazo[5,1-f][1,2,4]triazin-4(3H)-one] | > 10 | –
Cc1ccc(C(=O)N2CCC(O)(Cn3cnn4c(-c5ccc(F)cc5)ncc4c3=O)CC2)cc1F [Compound I-125, 3-((1-(3-fluoro-4-methylbenzoyl)-4-hydroxypiperidin-4-yl)methyl)-7-(4-fluorophenyl)imidazo[5,1-f][1,2,4]triazin-4(3H)-one] | > 10 | –
O=C(c1ccc(F)cc1)N1CCC(O)(Cn2cnn3c(-c4ccc(F)cc4)ncc3c2=O)CC1 [Compound I-116, 3-((1-(4-fluorobenzoyl)-4-hydroxypiperidin-4-yl)methyl)-7-(4-fluorophenyl)imidazo[5,1-f][1,2,4]triazin-4(3H)-one] | > 10 | –
O=C(c1ccc(-n2cccn2)cc1)N1CCC(O)(Cn2cnn3c(-c4ccc(F)cc4)ncc3c2=O)CC1 [Compound I-123, 3-((1-(4-(1H-pyrazol-1-yl)benzoyl)-4-hydroxypiperidin-4-yl)methyl)-7-(4-fluorophenyl)imidazo[5,1-f][1,2,4]triazin-4(3H)-one] | 1 to 10 | –
Cc1ccc(-c2ncc3c(=O)n(CC4(O)CCN(C(=O)C[C@H](C)n5cccn5)CC4)cnn23)cc1 [Compound I-120, (S)-3-((1-(3-(1H-pyrazol-1-yl)butanoyl)-4-hydroxypiperidin-4-yl)methyl)-7-(p-tolyl)imidazo[5,1-f][1,2,4]triazin-4(3H)-one] | 1 to 10 | –
Cc1c(F)cccc1NC(=O)Nc1cc2c(=O)n(CC3(O)CCN(C(=O)C4CC4)CC3)cnn2c1 [Compound I-97, 1-(3-((1-(cyclopropanecarbonyl)-4-hydroxypiperidin-4-yl)methyl)-4-oxo-3,4-dihydropyrrolo[2,1-f][1,2,4]triazin-6-yl)-3-(3-fluoro-2-methylphenyl)urea] | – | > 10
3-((1-(3-(1H-pyrazol-1-yl)butanoyl)-4-hydroxypiperidin-4-yl)methyl)pyrrolo[2,1-f][1,2,4]triazin-4(3H)-one [Compound I-34] | – | > 10
